Consider four compounds from patent US20180207165A1, “METHODS AND COMPOSITIONS FOR STIMULATING BENEFICIAL BACTERIA IN THE GASTROINTESTINAL TRACT” (Rijksuniversiteit Groningen, priority 2012, published 2018).

The test system of one test is F. prausnitzii. Briefly: Stability of F. prausnitzii synbiotic formulations after exposure to ambient air (CFU count). On the set-up: species or system Faecalibacterium prausnitzii. To be noted: ingredient in lyophilized formulation. As to the method:
To produce a formulation with living faecalibacteria that are stable for at least 24 h under aerobic conditions, series of experiments were performed with different combinations of ingredients. Faecalibacteria were grown overnight in broth culture medium, centrifuged and the pellet was washed with anaerobic phosphate buffered saline (PBS) and centrifuged again. The mixtures were frozen at −20° C. and subsequently lyophilized.
After lyophilizing, the formulations were exposed to air for the indicated time periods. The preparations were re-suspended in phosphate buffer and a 10 fold-dilution series was plated on anaerobic growth medium agar. The Colony-forming units were counted and compared with a non exposed t=0 time point.
The lyophilized granules obtained according to step 2 were stored in air tight containers under ambient aerobic conditions. For stability and viability studies granules were exposed to the ambient air at defined period up to 24 h. After aerobic exposures the granules were processed anaerobically under anaerobic tent. The granules were diluted and rehydrated in oxygen free phosphate buffered saline (pH 7.2) supplemented with 0.05% cysteine and ten-fold dilution series were plated on YCFAG agar medium. Colony forming units were determined by counting the colonies formed on the agar plates after 24 h of incubations at 37° C.

In test [1] the test system is Faecalibacterium prausnitzii. Briefly: Riboflavin intervention trial: FISH count of F. prausnitzii in fecal samples. The test is classed as in vivo, human. How it is done:
(§1) A human intervention study was performed to investigate the effect of riboflavin on the numbers of Faecalibacterium prausnitzii in the gut. A group of 8 volunteers (body weight 60 to 90 kg) were asked to take 1 oral dose of 100 mg riboflavin supplement per day for 14 days.
(§2) Two samples were taken in a period of two weeks before the intake, as baseline samples, two samples (one per week) were taken during the intake and one sample a week after intake. The number of F. prausnitzii and that of other bacterial groups were determined by FISH with a specific probes as describe before (Harmsen et al. Appl Environ Microbiol. 2002 June; 68(6):2982-90). The numbers of faecalibacteria of the samples taken before and during the intake were averaged and all samples were plotted in FIG. 1.

The subject of the next test is Clostridium group XIVa. Briefly: Riboflavin intervention trial: FISH count of Clostridium group XIVa in fecal samples. It counts as in vivo, human. The settings on record: 8 volunteers, 100 mg/day oral riboflavin for two weeks. As to the method:
as §1, §2

For test [2], the system named is Enterobacteriaceae, E. coli-like bacteria. Kind of test: Riboflavin intervention trial: count of E. coli-like bacteria in fecal samples. The test is classed as in vivo, human. How it is done: as §1, §2
In the next test the test system is Enterococci. Briefly: Riboflavin intervention trial: count of Enterococci in fecal samples. To be noted: during the intervention, 100 mg/day riboflavin. The test is classed as in vivo, human. As to the method:
as §1, §2

The nature of test [3]: Butyrate production in human volunteers on oral riboflavin. To be noted: orally administered riboflavin. It counts as in vivo.

For `O=C1O[C@H]([C@@H](O)CO)C(O)=C1O` [ascorbic acid], the “protective effect on faecalibacteria against ambient air exposure” value with F. prausnitzii is on record as “not observed”.
Same read-out and setting: in the case of `N[C@@H](CS)C(=O)O` [cysteine] it was “provide the protective effect”; in that of `O=c1c(O)c(-c2ccc(O)c(O)c2)oc2cc(O)cc(O)c12` [quercitin], “not observed”.
For `Cc1cc2nc3c(=O)[nH]c(=O)nc-3n(C[C@H](O)[C@H](O)[C@H](O)CO)c2cc1C` [riboflavin], the “percentage F. prausnitzii of the total bacteria” value in test [1] (8 volunteers, 100 mg/day oral riboflavin for 14 days, feces) is given as “increased in 7 out of 8 samples”. Moreover, the “number of faecalibacteria in fecal samples” value in test [1] (8 volunteers, 1 oral dose of 100 mg riboflavin per day for 14 days, pre, during, post intake, FISH) is “increased during intake and decreased again when the intake ceases”. Also, in test [1] (calculated from before and from during intake, 100 mg/day riboflavin), the “ratio faecalibacteria/Clostridium group XIVa” value was “increased in all cases”. Besides, the “number of Clostridium group XIVa bacteria in fecal samples” value in the test with Clostridium group XIVa is “did not increase”. Besides, in test [2] (during riboflavin intake, 100 mg/day for two weeks, all individuals tested), the “number of E. coli(-like bacteria) in fecal samples” value is listed as “decreased or remained the same”. The “ratio of faecalibacteria to E. coli-like bacteria” value in test [2] (upon administration of riboflavin, 100 mg/day) is on record as “the ratio shifted towards faecalibacteria”. Moreover, in the test with Enterococci, the “number of Enterococci in fecal samples” value was “did not increase during the intervention”. For the same compound, in test [3], the butyrate production entry is reported as “enhanced”. Further, the “protective effect on faecalibacteria against ambient air exposure” value in the test on F. prausnitzii is “provide the protective effect”.
